Measurements taken from patent US6160004A, “C-10 carbon-substituted artemisinin-like trioxane compounds having antimalarial, antiproliferative and antitumor activities” (priority 1998, dated 2000).
Like-named read-outs stand apart in the source and are kept apart here.

How the values were obtained:
NCI-H23 = assay: cells; assay type: cell-based; details: Homo sapiens; NCI-H23, non-small cell lung cancer, 48 h; read-out: Log10 GI50 (converted)
HCT-15 = assay: cells; assay type: cell-based; details: Homo sapiens, HCT-15, colon cancer, 48 h
60 cell line panel = assay: NCI 60 cell line panel, whole panel
HOP-92 = assay: cells; assay type: cell-based; details: Homo sapiens, HOP-92, non-small cell lung cancer, 48 h
A498 = assay: cells; assay type: cell-based; details: Homo sapiens, A498, renal cancer, 48 h
CCRF-CEM = assay: cells; assay type: cell-based; details: Homo sapiens, 48 h
TK-10 = assay: cells; assay type: cell-based; details: Homo sapiens, TK-10, renal cancer, 48 h
NCI-H226 = assay: cells; assay type: cell-based; details: Homo sapiens, NCI-H226, 48 h, read-out: Log10 GI50 (converted)
RPMI-8226 = assay: NCI 60 cell line panel screening assay (SRB), RPMI-8226; assay type: cell-based; details: Homo sapiens
DU-145 = assay: cells; assay type: cell-based; details: Homo sapiens, DU-145, 48 h
SK-OV-3 = assay: cells; assay type: cell-based; details: Homo sapiens
OVCAR-5 = assay: cells; assay type: cell-based; details: Homo sapiens
HCT-116 = assay: cells; assay type: cell-based; details: Homo sapiens, HCT-116, 48 h
SF-268 = assay: cells; assay type: cell-based; details: Homo sapiens, SF-268, CNS cancer, 48 h
SNB-75 = assay: cells; assay type: cell-based; details: Homo sapiens; SNB-75, CNS cancer, 48 h; read-out: Log10 LC50 (converted)
K-562 = assay: cells; assay type: cell-based; details: Homo sapiens
PC-3 = assay: cells; assay type: cell-based; details: Homo sapiens, PC-3, prostate cancer, 48 h
UACC-257 = assay: cells; assay type: cell-based; details: Homo sapiens, UACC-257, 48 h
NCI-H322M = assay: cells; details: Homo sapiens, 48 h
HT29 = assay: cells; assay type: cell-based; details: Homo sapiens, HT-29, HT29, colon cancer, 48 h
M14 = assay: NCI 60 cell line panel screening assay (SRB), M14; details: Homo sapiens, M14, 48 h
SN12C = assay: NCI 60 cell line panel screening assay (SRB), SN12C; assay type: cell-based; details: Homo sapiens, renal cancer, 48 h
SK-MEL-28 = assay: cells; assay type: cell-based; details: Homo sapiens, SK-MEL-28, melanoma, 48 h
UACC-62 = assay: cells; assay type: cell-based; details: Homo sapiens
T-47D = assay: NCI 60 cell line panel screening assay (SRB), T-47D; details: Homo sapiens, T47D, 48 h
SW-620 = assay: NCI 60 cell line panel screening assay (SRB), SW-620; assay type: cell-based; details: Homo sapiens
SR = assay: cells; assay type: cell-based; details: Homo sapiens, leukemia, 48 h
BT-549 = assay: cells; assay type: cell-based; details: Homo sapiens, BT-549, breast cancer, 48 h
RXF 393 = assay: cells; assay type: cell-based; details: Homo sapiens, RXF 393, renal cancer, 48 h
MOLT-4 = assay: cells; details: Homo sapiens
[1] = read-out: Log10 GI50 (converted)
[2] = read-out: Log10 LC50 (converted)

CC1CCC2C(C)C(CC(=O)c3cccc(C(=O)CC4OC5OC6(C)CCC7C(C)CCC(C4C)C57OO6)c3)OC3OC4(C)CCC1C32OO4 (stereo not drawn) [Dimer 39]
100 µM: IC (TGI) (60 cell line panel; 60 cell, read-out: MG MID of Log10 TGI) | CC50 (60 cell line panel; Homo sapiens, 60 cell, read-out: MG MID of Log10 LC50 (converted))
0.00: Delta of Log10 TGI (60 cell line panel; panel) | Range of Log10 TGI (60 cell line panel; panel)
> 100 µM: GI50 (NCI-H23) | GI50 (HCT-15; [1]) | CC50 (HCT-15; [2]) | GI50 (HOP-92; [1]) | CC50 (HOP-92; [2]) | CC50 (A498; [2]) | IC (TGI) (A498; read-out: Log10 TGI) | GI50 (CCRF-CEM; [1]) | CC50 (CCRF-CEM; [2]) | IC (TGI) (CCRF-CEM; leukemia, read-out: Log10 TGI) | GI50 (TK-10; [1]) | CC50 (TK-10; [2]) | IC (TGI) (TK-10; read-out: Log10 TGI) | CC50 (RPMI-8226; RPMI-8226, 48 h, read-out: Log10 LC50 (converted)) | GI50 (RPMI-8226; RPMI-8226, leukemia, 48 h, read-out: Log10 GI50 (converted)) | IC (TGI) (RPMI-8226; RPMI-8226, leukemia, 48 h, read-out: Log10 TGI) | GI50 (DU-145; [1]) | CC50 (DU-145; [2]) | IC (TGI) (DU-145; read-out: Log10 TGI) | IC (TGI) (SK-OV-3; SK-OV-3, 48 h, read-out: Log10 TGI) | GI50 (SK-OV-3; SK-OV-3, ovarian cancer, 48 h, read-out: Log10 GI50 (converted)) | CC50 (SK-OV-3; SK-OV-3, ovarian cancer, 48 h, read-out: Log10 LC50 (converted)) | IC (TGI) (OVCAR-5; OVCAR-5, 48 h, read-out: Log10 TGI) | CC50 (OVCAR-5; OVCAR-5, ovarian cancer, 48 h, read-out: Log10 LC50 (converted)) | GI50 (HCT-116; [1]) | CC50 (HCT-116; [2]) | GI50 (SF-268; [1]) | CC50 (SF-268; [2]) | CC50 (SNB-75) | CC50 (K-562; K562, 48 h, read-out: Log10 LC50 (converted)) | GI50 (K-562; K562, K-562, leukemia, 48 h, read-out: Log10 GI50 (converted)) | GI50 (PC-3; [1]) | LC50 (PC-3; [2]) | IC (TGI) (UACC-257; read-out: Log10 TGI) | GI50 (UACC-257; [1]) | CC50 (UACC-257; [2]) | GI50 (NCI-H322M; [1]) | CC50 (NCI-H322M; [2]) | IC (TGI) (NCI-H322M; read-out: Log10 TGI) | GI50 (HT29; [1]) | CC50 (HT29; [2]) | GI50 (M14; [1]) | CC50 (M14; [2]) | IC (TGI) (M14; read-out: Log10 TGI) | GI50 (SN12C; [1]) | CC50 (SN12C; [2]) | IC (TGI) (SN12C; read-out: Log10 TGI) | GI50 (SK-MEL-28; [1]) | CC50 (SK-MEL-28; [2]) | IC (TGI) (SK-MEL-28; read-out: Log10 TGI) | IC (TGI) (UACC-62; UACC-62, 48 h, read-out: Log10 TGI) | GI50 (UACC-62; UACC-62, melanoma, 48 h, read-out: Log10 GI50 (converted)) | LC50 (UACC-62; UACC-62, melanoma, 48 h, read-out: Log10 LC50 (converted)) | GI50 (T-47D; [1]) | CC50 (T-47D; [2]) | GI50 (SW-620; SW-620, 48 h, read-out: Log10 GI50 (converted)) | CC50 (SW-620; SW-620, colon cancer, 48 h, read-out: Log10 LC50 (converted)) | IC (TGI) (SW-620; SW-620, colon cancer, 48 h, read-out: Log10 TGI) | GI50 (SR; [1]) | CC50 (SR; [2]) | IC (TGI) (SR; read-out: Log10 TGI) | GI50 (BT-549; [1]) | CC50 (BT-549; [2]) | GI50 (RXF 393; [1]) | CC50 (RXF 393; [2]) | IC (TGI) (RXF 393; read-out: Log10 TGI) | CC50 (MOLT-4; MOLT-4, 48 h, read-out: Log10 LC50 (converted)) | IC (TGI) (MOLT-4; MOLT-4, 48 h, read-out: Log10 TGI) | CC50 (MOLT-4; MOLT-4, read-out: concentration for cytotoxicity (PG -50)) | IC50 (MOLT-4; MOLT-4, read-out: concentration for primary growth inhibition (PG +50))
29.5 µM: GI50 (NCI-H226)
